In paper PMC6158189, “A pharmacological probe identifies cystathionine β-synthase as a new negative regulator for ferroptosis” (Cell Death & Disease, 2018):
“Also recorded” adds a separate entry of the source.

Legend:
H22 cells = assay: cell viability (CellTiter 96 Aqueous One); format: cell-based, mouse
Procedure: (§1) To measure cell viability and cytotoxicity, HepG2, HEK293T, Huh-7, H22, Panc-28, HCT116 and MDA-MB-231 cells were seeded at a density of ~ 2 × 10^4 cells per well in 96-well plates (Coring, NY, USA) for one day, followed by incubation with DMSO or various concentrations of tested compound for indicated times. Then, the cells were collected to measure the cell viability using the CellTiter 96® Aqueous One Solution Cell Proliferation Assay (Promega, G3581) according to the standard protocols.
Figure S11. The effects of CH004 on cell viability in various types of cancer cell lines. (A) Dose-dependent curves of CH004 on cell viability of HepG2 cells (▲), HEK293T cells (○). Percentages of cell viability of CH004 obtained in Figure 4a were fitted to the non-linear equation using GraphPad Prism 5 to get the IC50 values of CH004 in respective cell lines. Means ± SDs (n=3). […] (B) MDA-MB-231 (breast cancer cell cline), HCT116 (colon cancer), Panc-28 cells (pancreas cancer), Huh7 cells (hepatocellular carcinoma) and H22 (mouse liver cancer) were incubated with DMSO (control) or indicated concentrations of CH004 for 24 h in a 96-well plate before assessing cell viability using the CellTiter96® Aqueous One Solution Cell Proliferation Assay (Promega). The data are shown as percentages of control (DMSO, 100%). Means ± SDs (n=3). (C) The dose-dependent curve of CH004 on cell viability. […]

Panc-28 cells = assay: cell viability (CellTiter 96 Aqueous One); format: cell-based; details: 24 h
Procedure: as §1
(§2) Figure S11. The effects of CH004 on cell viability in various types of cancer cell lines. (A) Dose-dependent curves of CH004 on cell viability of HepG2 cells (▲), HEK293T cells (○). Percentages of cell viability of CH004 obtained in Figure 4a were fitted to the non-linear equation using GraphPad Prism 5 to get the IC50 values of CH004 in respective cell lines. Means ± SDs (n=3). […] (B) MDA-MB-231 (breast cancer cell cline), HCT116 (colon cancer), Panc-28 cells (pancreas cancer), Huh7 cells (hepatocellular carcinoma) and H22 (mouse liver cancer) were incubated with DMSO (control) or indicated concentrations of CH004 for 24 h in a 96-well plate before assessing cell viability using the CellTiter96® Aqueous One Solution Cell Proliferation Assay (Promega). The data are shown as percentages of control (DMSO, 100%). Means ± SDs (n=3). (C) The dose-dependent curve of CH004 on cell viability. Percentages of cell viability obtained in B were fitted to the non-linear equation using GraphPad Prism 5 to get the IC50 values of CH004 in respective cell lines. […] The experiments were independently repeated twice in triplicates and a representative experiment is shown.

MDA-MB-231 cells = assay: cell viability (CellTiter 96 Aqueous One); format: cell-based; details: Homo sapiens, MDA-MB-231, 24 h
Procedure: as §1, §2

HCT116 cells = assay: cell viability (CellTiter 96 Aqueous One); format: cell-based
Procedure: as §1, §2

Huh7 cells = assay: cell viability (CellTiter 96 Aqueous One); format: cell-based
Procedure: as §1, §2

[1] = test system: H22 mouse liver tumor cells in ICR mice; details: 10 mg/kg/day i.v.
Procedure: Fig. 7 CH004 suppresses tumor growth in vivo. a–c CH004 reduces the growth rate of tumors in liver tumor xenograft mice model. Mice bearing liver tumor xenografts were treated with CH004 (10 mg/kg/d), cyclophophamide (CTX, 20 mg/kg/d) or PBS (Vehicle) for 21 days. The tumor volumes were measured every two days during day 6 to day 22 and the data was presented in a (n = 8). […] Mice body weight was measured along with the measurement of tumor volume (n = 8). Means ± SDS. Statistical analyses were performed on the raw data by one-way (c) or two-way ANOVA (a) with Bonferroni post-tests. The significance of the CH004-treated group compared to Vehicle was indicated with $ (a), whereas the comparison of the CTX group to Vehicle was with # (a). $, # or ***p < 0.001
The in vivo effect of CH004 on tumor growth was evaluated in a xenograft mice model of liver cancer. The experiment was independently performed by Jiangsu KeyGEN BioTECH Co. LTD (Jiangsu, China) and followed the standard procedures that were established and approved by the local Animal Care and Use Committee. Briefly, H22 mouse liver tumor cells were intraperitoneal injected into female ICR mice (SLAC Laboratory Animal Co. Ltd, Shanghai, China). 8 days later, mice with distended abdomen were killed, and the ascites was collected, washed and resuspended with PBS. 0.1 ml cell suspension with a density of 1 × 10^7/ml was subcutaneously injected into the right dorsum of ICR female mice (~20 g). The mice bearing H22 tumor cells were then randomized into groups (n = 8) on the following day after the implantation. Then, the mice were injected via a tail vein (i.v.) with PBS, CH004 (10 mg/kg) or cyclophosphamide (CTX, a known anticancer drug; 20 mg/kg) once per day and for 21 days. Tumor sizes were measured every 2 days starting from the day 6 using a caliper, and tumor volume was calculated using the formula V = length × width^2 × π / 6. The body weights of mice were recorded under the same conditions. The mice were sacrificed on day 22, and the tumors were taken out and weighted.

HepG2 cells = assay: intracellular total glutathione (Cayman kit); format: cell-based, human; details: 24 h
Procedure: Then, the cells from two wells were collected by cell scraper and washed once with PBS. The intracellular total glutathione (GSH) was measured with a commercial glutathione assay kit under the standard protocol (Cayman Chemical, Ann Arbor, USA). […] Supernatant was then collected after centrifugation at 12,000 × g for 15 min at 4 °C before the deproteination by adding an equal volume of 2.5 M metaphosphoric (MPA, Sigma). After the incubation for 5 min, the mixture was centrifuged at 3000 × g for 5 min. The supernatant was collected and added appropriate amount of 4 M triethanolamine (Sigma, 50 μl per 1 ml of the supernatant). The deproteinated and neutralized supernatant was used for the determination of the amount of total GSH by incubating with the assay reagents (from the kit) in a 96-well plate. After an incubation of 25 min, the absorbance at 405 nm was recorded and converted into the amount of GSH with a standard curve.

`Cn1nc(Cc2ccccc2)nc2c(=O)n(C)c(=O)nc1-2` [CH004, 3-benzyl-1,6-dimethylpyrimido[5,4-e][1,2,4]triazine-5,7(1H,6H)-dione] gave an IC50 (H22 cells; 24 h) of roughly 13 µM, an IC50 (H22 cells; Mus musculus, H22, 24 h) of 12.9 ± 0.7 µM and an IC50 (Panc-28 cells) of 7.2 ± 0.5 µM. For the same molecule, the IC50 (MDA-MB-231 cells) was 25.8 ± 3.2 µM, the IC50 (HCT116 cells; 24 h) was 4 µM and the IC50 (HCT116 cells; Homo sapiens, HCT-116, 24 h) was 4.1 ± 1.2 µM. The IC50 (Huh7 cells; 24 h) was roughly 12 µM, the IC50 (Huh7 cells; Homo sapiens, Huh-7, 24 h) was 12.4 ± 1.6 µM and the “reduction of tumor volume or weight” value ([1]; 21-day treatment) was “more than half”. The “effect on total body weight” value ([1]; 21 days) was “did not substantially affect; also recorded: hardly affects”, the “growth rate of tumor” value ([1]; since day 12 of treatment, p < 0.001) was “significantly reduced” and the “intracellular pool of glutathione (GSH)” value (HepG2 cells) was “dose-dependently deplete”.
